Test results: patent US8722723B2, “Aromatic amide derivative” (Research Foundation Itsuu Laboratory, priority 2008, dated 2014)

Experiments:
luciferase (Luc) = test: Reporter assay: Hela cells transfected with human RORα1 expression vector and luciferase (Luc) reporter vector; Luc activity corrected with β-Gal activity; format: cell-based, firefly; parameters: key: β-Gal-corrected Luc activity; smaller = inhibition, larger = promotion; conditions: human RORα1 expression vector, rev-DR2/TK-Luc reporter, about 1 day, smaller number = inhibitory, larger = promoting
Procedure: The reporter assay was used, in which Hela cells transfected with each of a pcDNA3 vector incorporated with the human RORα1 so that the gene can be expressed in animal cells as an expression vector, and a pGL3 promoter vector of which SV40 promoter was replaced with TK promoter as a luciferase expression reporter vector were used.
The Hela cells were placed at a density of 2×10^4 cells/0.1 mL/well on a 96-well cell culture plate (FALCON) by using 10% FBS-DMEM. On the next day, the human RORα1 expression vector, the reporter vector incorporated with 3 copies of rev-DR2 sequences and the HSV thymidine kinase promoter at a position upstream from the luciferase (Luc) gene, and a β-galactosidase (β-Gal) expression vector for control were introduced into the cells by using a transfection reagent (Fugene6, Roche). On the next day, the medium was replaced with 5% FBS-DMEM containing a test compound diluted at a prescribed concentration, after about 1 day, the cell supernatant was removed, then the cells were lysed (Passive Lysis buffer, Promega), the Luc substrate (PicaGene, Toyo Ink) was added to a part of the lysed cells, and the activity of produced Luc was measured as luminescence intensity. Further, the β-Gal activity was measured as intensity of fluorescence generated when 4-methylumbelliferyl β-D-galactoside was added as a substrate, and the activity of Luc corrected for the transfection efficiency with the β-Gal activity was used as the index for evaluation. A smaller number indicates inhibitory action, and a larger number indicates promoting action.

| SMILES | melting point [°C] | activity of Luc corrected for the transfection efficiency with the β-Gal activity (luciferase (Luc); test compound 1 μM) | activity of Luc corrected for the transfection efficiency with the β-Gal activity (luciferase (Luc); test compound 10 μM) | activity of Luc corrected for the transfection efficiency with the β-Gal activity (luciferase (Luc); test compound 0.01 μM) | activity of Luc corrected for the transfection efficiency with the β-Gal activity (luciferase (Luc); test compound 0.1 μM) |
| --- | --- | --- | --- | --- | --- |
| CCCc1ccc(N2Cc3cc(N(C)C)ccc3C2=O)cc1 [Compound 1, 5-dimethylamino-2-(4-propyl-phenyl)-isoindol-1-one] | 160 to 161 |  |  |  |  |
| CCCc1ccc(N2Cc3ccc(N(C)C)cc3C2=O)cc1 [Compound 2, 6-dimethylamino-2-(4-propyl-phenyl)-isoindol-1-one] | 141 to 142 | 2.8 | 3.0 |  |  |
| CCCCc1ccc(N2Cc3cc(N(C)C)ccc3C2=O)cc1 [Compound 3, 5-dimethylamino-2-(4-n-butyl-phenyl)-isoindol-1-one] | 133 to 134 |  |  |  |  |
| CC(C)c1ccc(N2Cc3cc(N(C)C)ccc3C2=O)cc1 [Compound 5, 5-dimethylamino-2-(4-isopropyl-phenyl)-isoindol-1-one] | 167 to 169 |  |  |  |  |
| CC(C)c1ccc(N2Cc3ccc(N(C)C)cc3C2=O)cc1 [Compound 6, 6-dimethylamino-2-(4-isopropyl-phenyl)-isoindol-1-one] | 169 to 170 |  |  |  |  |
| CCCCCCCc1ccc(N2Cc3cc(N(C)C)ccc3C2=O)cc1 [Compound 7, 5-dimethylamino-2-(4-n-heptyl-phenyl)-isoindol-1-one] | 133 to 134 | 1.1 | 1.1 | 1.0 | 1.1 |
| CCCCCCCc1ccc(N2Cc3ccc(N(C)C)cc3C2=O)cc1 [Compound 8, 6-dimethylamino-2-(4-n-heptyl-phenyl)-isoindol-1-one] | 101 to 102 |  |  |  |  |
| CCCCCCCCc1ccc(N2Cc3cc(N(C)C)ccc3C2=O)cc1 [Compound 9, 5-dimethylamino-2-(4-n-octyl-phenyl)-isoindol-1-one] | 128 to 129 |  |  |  |  |
| CCCCCCCCc1ccc(N2Cc3ccc(N(C)C)cc3C2=O)cc1 [Compound 10, 6-dimethylamino-2-(4-n-octyl-phenyl)-isoindol-1-one] | 100 to 101 | 0.3 | 0.4 | 0.9 | 0.7 |
| CN(C)c1ccc2c(c1)CN(c1ccc(C3CCCCC3)cc1)C2=O [Compound 11, 5-dimethylamino-2-(4-cyclohexyl-phenyl)-isoindol-1-one] |  | 2.1 | 2.6 |  |  |
| CN(C)c1cccc2c1C(=O)N(c1ccccc1)C2 [Compound 13, 7-dimethylamino-2-phenyl-2,3-dihydro-isoindol-1-one] | 58 to 60 |  |  |  |  |
| CCOC(=O)CCCc1ccc(N2Cc3ccc(N(C)C)cc3C2=O)cc1 [Compound 17, 4-[4-(6-dimethylamino-1-oxo-1,3-dihydro-isoindol-2-yl)-phenyl]-butyric acid ethyl ester] |  | 0 | 0.0 | 0.2 | 0 |
| O=C(O)C=Cc1ccc(N2Cc3ccccc3C2=O)cc1 [Compound 24, 3-[4-(1-oxo-1,3-dihydro-isoindol-2-yl)-phenyl]-acrylic acid] |  | 0.5 | 0.4 | 0.9 | 0.7 |
| CN(C)c1ccc2c(c1)C(=O)N(c1ccc(CCCC(=O)OC(C)(C)C)cc1)C2 [Compound 31, 4-[4-(6-dimethylamino-1-oxo-1,3-dihydro-isoindol-2-yl)-phenyl]-butyric acid tert-butyl ester] |  | 0.1 | 0.0 | 0.8 | 0.4 |

Continued, in another order:

| melting point [°C] | SMILES | activity of Luc corrected for the transfection efficiency with the β-Gal activity (luciferase (Luc); test compound 1 μM) | activity of Luc corrected for the transfection efficiency with the β-Gal activity (luciferase (Luc); test compound 10 μM) | activity of Luc corrected for the transfection efficiency with the β-Gal activity (luciferase (Luc); test compound 0.01 μM) | activity of Luc corrected for the transfection efficiency with the β-Gal activity (luciferase (Luc); test compound 0.1 μM) |
| --- | --- | --- | --- | --- | --- |
| 145 to 146 | COc1ccc(N2Cc3cccc(N(C)C)c3C2=O)cc1 [Compound 14, 7-dimethylamino-2-(4-methoxyphenyl)-2,3-dihydro-isoindol-1-one] | 3.1 | 2.4 | 1.9 | 2.6 |
| 116 to 117 | CCOC(=O)CCCc1ccc(N2Cc3cc(N(C)C)ccc3C2=O)cc1 [Compound 15, 4-[4-(5-dimethylamino-1-oxo-1,3-dihydro-isoindol-2-yl)-phenyl]-butyric acid ethyl ester] |  |  |  |  |
| 179 to 180 | CN(C)c1ccc2c(c1)CN(c1ccc(CCCC(=O)O)cc1)C2=O [Compound 16, 4-[4-(5-dimethylamino-1-oxo-1,3-dihydro-isoindol-2-yl)-phenyl]-butyric acid] |  |  |  |  |
| 94 to 96 | CCOC(=O)CCCc1ccc(N2Cc3ccccc3C2=O)cc1 [Compound 19, 4-[4-(1-oxo-1,3-dihydro-isoindol-2-yl)-phenyl]-butyric acid ethyl ester] |  |  |  |  |
| 128 to 129 | O=C(O)CCCc1ccc(N2Cc3ccccc3C2=O)cc1 [Compound 20, 4-[4-(1-oxo-1,3-dihydro-isoindol-2-yl)-phenyl]-butyric acid] |  |  |  |  |
| 123 to 124 | COC(=O)CCc1ccc(N2Cc3ccc(N(C)C)cc3C2=O)cc1 [Compound 21, 3-[4-(6-dimethylamino-1-oxo-1,3-dihydro-isoindol-2-yl)-phenyl]-propionic acid methyl ester] |  |  |  |  |
| 200 to 201 | CN(C)c1ccc2c(c1)C(=O)N(c1ccc(CCC(=O)O)cc1)C2 [Compound 22, 3-[4-(6-dimethylamino-1-oxo-1,3-dihydro-isoindol-2-yl)-phenyl]-propionic acid] |  |  |  |  |
| 238 to 239 | COC(=O)COc1ccc(N2Cc3ccc([N+](=O)[O-])cc3C2=O)cc1 [Compound 25, [4-(6-nitro-1-oxo-1,3-dihydro-isoindol-2-yl)-phenoxy]-acetic acid methyl ester] |  |  |  |  |
| 197 to 198 | COC(=O)COc1ccc(N2Cc3ccc(N)cc3C2=O)cc1 [Compound 26, [4-(6-amino-1-oxo-1,3-dihydro-isoindol-2-yl)-phenoxy]-acetic acid methyl ester] |  |  |  |  |
| 167 to 168 | COC(=O)COc1ccc(N2Cc3ccc(N(C)C)cc3C2=O)cc1 [Compound 27, [4-(6-dimethylamino-1-oxo-1,3-dihydro-isoindol-2-yl)-phenoxy]-acetic acid methyl ester] |  |  |  |  |
| 68 to 69 | CCCCCCCNc1cccc2c1CN(c1cc(C)cc(C)c1)C2=O [Compound 33, 2-(3,5-dimethyl-phenyl)-4-heptylamino-2,3-dihydro-isoindol-1-one] |  |  |  |  |
| 127 to 128 | CN(C)c1cccc(C(=O)Nc2ccc(CCCC(=O)O)cc2)c1 [Compound 34, 4-[4-(3-dimethylamino-benzoylamino)-phenyl]-butyric acid] |  |  |  |  |
| 108 to 109 | CCOC(=O)CCCc1ccc(NC(=O)c2cc([N+](=O)[O-])ccc2C)cc1 [Compound 37, 4-[4-(2-methyl-5-nitro-benzoylamino)-phenyl]-butyric acid ethyl ester] |  |  |  |  |
| 172 to 173 | Cc1ccc([N+](=O)[O-])cc1C(=O)Nc1ccc(CCCC(=O)O)cc1 [Compound 38, 4-[4-(2-methyl-5-nitro-benzoylamino)-phenyl]-butyric acid] |  |  |  |  |
| 126 to 127 | CCOC(=O)CCCc1ccc(NC(=O)c2cc(C)ccc2[N+](=O)[O-])cc1 [Compound 39, 4-[4-(5-methyl-2-nitro-benzoylamino)-phenyl]-butyric acid ethyl ester] |  |  |  |  |
